This is an account of results in patent US4252807A, “Fused pyrimidine derivatives and antiatherosclerotic methods of treatment with them” (Chincin Gyogyszer es Vegyeszeti Termekek Gyara Rt., priority 1976, dated 1981).

In one data set the test system is normolyphaemic rats. Nature of the data set: normolyphaemic rats, serum lipids (Table 2). The class given is in vivo, rat. Details: Serum triglyceride: unit not given here. To be noted: for Serum cholesterine: Control 103; for Serum triglyceride: Control 185.1.
The test system of data set [1] is cholesterin-fed rabbit atherosclerosis model. Kind of data set: cholesterin-fed rabbit atherosclerosis model (Table 1). The class given is in vivo. Details: Serum triglyceride: unit not given here. To be noted: for Serum triglyceride / Serum total cholesterin / Aorta total cholesterin / Serum total lipid / Aorta total lipid: rabbit, cholesterin-fed; for Serum triglyceride: Control-1 75, Control-2 103; for Serum total cholesterin: Control-1 326, Control-2 1504; for Aorta total cholesterin: Control-1 331, Control-2 921; for Aorta total lipid: Control-1 1928, Control-2 2575; for serum lipid, aorta lipid and cholesterin lipid level: in words, from the data of Table 1 (rabbit, 50 mg/kg).

The mark [2] stands for this setting: dose 50 mg/kg, Control-1 (normal feed) 658, Control-2 (cholesterin) 2374.

In the case of `CCOC(=O)C1=CNC2C(CC(=O)O)CCCN2C1=O` (centres unmarked) [F, 9-(carboxyl-methyl)-4-oxo-1,6,7,8,9,9a-hexahydro-4H-pyrido(1,2a)pyrimidine-3-carboxylic acid ethylester], in the data set with normolyphaemic rats (50 mg/kg p.o.), the Serum cholesterine is on record as 88.0 and the Serum triglyceride was determined as 155.5.
The like results for `CCOC(=O)c1cnc2n(c1=O)CCCC2CC(=O)O` (centres unmarked) [G, 9-(carboxyl-methyl)-4-oxo-6,7,8,9-tetrahydro-4H-pyrido-(1,2a)pyrimidine-3-carboxylic acid ethylester] were, in that order, 88.0 and 127.5.
In the data set with normolyphaemic rats (50 mg/kg p.o.), `COC(=O)C=C1CCC(C)n2c1ncc(C(=O)OC)c2=O` (centres unmarked) [H, 9-(methoxycarbonyl-methylene)-6-methyl-4-oxo-6,7,8,9-tetrahydro-4H-pyrido(1,2a)pyrimidine-3-carboxylic acid methylester] displayed a Serum cholesterine of 90.2 and a Serum triglyceride of 107.9.
In data set [1] (dose 250 mg/kg), `CCOC(=O)C(C)(C)Oc1ccc(Cl)cc1` [Chlofibrate, reference compound] had a Serum triglyceride of 115, a Serum total cholesterin of 1137, an Aorta total cholesterin of 787 and an Aorta total lipid of 2227. Besides, the Serum total lipid in data set [1] (dose 250 mg/kg, Control-1 658, Control-2 2374) was found to be 1938. In addition, the “weight of the liver” value in data set [1] (test animals) is given as “increase the weight of the liver”. Besides, in the data set with normolyphaemic rats (250 mg/kg p.o.), the Serum cholesterine was 63.9 and the Serum triglyceride amounted to 144.1.
In data set [1] (dose 50 mg/kg), “6-methyl-9-chloro-phenyl)-methylene-4-oxo-6,7,8,9-tetrahydro-4H-pyrido(1,2a)pyrimidine-3-carboxylic acid ethylester” displayed a Serum triglyceride of 190, a Serum total cholesterin of 1531, an Aorta total cholesterin of 365 and an Aorta total lipid of 2461. This compound also displayed a Serum total lipid in data set [1] (setting [2]) of 2547.
For `CCOC(=O)c1cnc2n(c1=O)C(C)CCC2=Cc1cccn1C` (centres unmarked) [A, 6-methyl-9-(N-methyl-2-pyrrolyl)-methylene-4-oxo-6,7,8,9-tetrahydro-4H-pyrido(1,2a) pyrimidine-3-carboxylic acid ethylester], in data set [1] (dose 50 mg/kg), the Serum triglyceride was found to be 121, the Serum total cholesterin came out at 1419, the Aorta total cholesterin amounted to 958 and the Aorta total lipid is 2496. This compound also returned a Serum total lipid in data set [1] (setting [2]) of 2309.
In the case of `CCOC(=O)c1cnc2n(c1=O)C(C)CCC2CC(=O)O` (centres unmarked) [D, 6-methyl-3-ethoxycarbonyl-4-oxo-6,7,8,9-tetrahydro-4H-pyrido(1,2a)pyrimidine-9-yl-acetic acid], the “serum lipid, aorta lipid and cholesterin lipid level” value in data set [1] is given as “significant decrease”. Moreover, in data set [1] (dose 50 mg/kg), the Serum triglyceride is on record as 97, the Serum total cholesterin came to 972, the Aorta total cholesterin amounted to 186 and the Aorta total lipid is 1355. For the same compound, the Serum total lipid in data set [1] (setting [2]) is listed as 1638.
Consider `CCOC(=O)C=C1CCC(C)n2c1ncc(C(=O)OCC)c2=O` (centres unmarked) [C, 6-methyl-9-(ethoxycarbonyl-methylene)-4-oxo-6,7,8,9-tetrahydro-4H-pyrido(1,2a)-purimidine-3-carboxylic acid ethylester], for which the “serum lipid, aorta lipid and cholesterin lipid level” value in data set [1] is “significant decrease”. For the same compound, in data set [1] (dose 50 mg/kg), the Serum triglyceride is 119, the Serum total cholesterin was found to be 1176, the Aorta total cholesterin is 353 and the Aorta total lipid is 1878. Besides, the Serum total lipid in data set [1] (setting [2]) is recorded as 1903.
Regarding `CCOC(=O)C=C1CCCn2c1ncc(C(=O)OCC)c2=O` [E, 9-(ethoxycarbonyl-methylene)-4-oxo-6,7,8,9-tetrahydro-4H-pyrido(1,2a)pyrimidine-3-carboxylic acid ethylester], in the data set on normolyphaemic rats (50 mg/kg p.o.), the Serum cholesterine was found to be 86.5 and the Serum triglyceride is recorded as 127.9.
